Reference: patent publication US20220373538A1, “COMPOSITION FOR DETERMINATION OF CELL-MEDIATED IMMUNE RESPONSIVENESS” (Lophius Biosciences GmbH, priority 2015, published 2022)
Like-named read-outs stand apart in the source and are kept apart here.

How the values were obtained:
Assay type in all cases: cell-based, human
PBMC [1] = test: IFN-γ ELISpot assay, one-step detection; conditions: for number of IFN-γ secreting cells detected / IFN-γ secreting cells after stimulation with the single stimulant (in words): single stimulant alone; for number of IFN-γ secreting cells detected: donor d270; for IFN-γ secreting cells after stimulation with the single stimulant (in words): collective of 10 donors, LPS 1 EU/ml
PBMC [2] = test: IFN-γ ELISpot assay, two-step detection; conditions: for IL-12 concentration at which the number of IFN-γ secreting cells reached a maximum or plateau, IL-12 combined with the poly(I:C) variant: 10 μg/ml poly(I:C)-LMW, 1 μg/ml poly(I:C)-LMW/LyoVec, 1 μg/ml poly(I:C) (Enzo)
PBMC [3] = test: IFN-γ ELISpot assay (T-Track basic IFN-γ), PBMC of rheumatism patients; conditions: patient P1, giant cell arthritis, 35 mg prednisolone equivalent daily; days 6 and 9
PBMC [4] = test: IFN-γ ELISA, temporal course of IFN-γ release; conditions: for start of IFN-γ secretion after stimulation: working concentrations, 0 to 24 hours
Description: The detection of secreted IFN-γ was performed with the test kit “BD OptEIA Human IFN-γ ELISA Set” from Becton, Dickinson and Company according to the recommended assay performance in the technical data sheet.
To ensure that the activation of the IFN-γ production by the tested stimulants occurred in the typical stimulation period of 19 hours, the temporal course of the IFN-γ secretion induced by the stimulants was determined over a period of 24 hours. For this purpose, at each time point PBMC adjusted to 2×10^5 lymphocytes of different donors have been stimulated by the determined working concentrations of the stimulants poly(I:C) in combination with IL-12. KRN7000 and CEFTv for 0 to 24 hours.
In specifically stimulated cells the determination of the IFN-γ production was made to 11 time points in an interval of 2 or 4 hours. In unstimulated cells (negative control) three measurements in interval of 6 and 12 hours were made. Upon completion of each stimulation period the cells of the stimulation preparation were centrifuged and the supernatant stored at −20° C. After all stimulations were finished the IFN-γ concentration of the supernatants has been determined by IFN-γ ELISA as described in example 3.

[5] = donor d022, a-Gal-Cer variants titrated, 19 h

In the case of “polyinosinic:polycytidylic acid [poly(I:C) (from Enzo)]”, the “change of the number of IFN-γ secreting cells by IL-12 in combination with the poly(I:C) variant (in words)” value (PBMC [1]) is reported as “very low increase”, the “concentration at which the number of IFN-γ secreting cells reached a maximum, plateau or saturation region” value (from here on “concentration … plateau or saturation region”) (PBMC [1]) is reported as “around 0.3 μg/ml” and the “IFN-γ secreting cells after stimulation (in words)” value (PBMC [1]; donor d042, […]) is reported as “activation of IFN-γ secreting PBMC”. The “number of IFN-γ secreting cells exceeding the plateau of poly(I:C)-LMW” value (PBMC [1]; donor d098, at highest concentration tested of 10 μg/ml) was “more than 100%”, the “ranking of activation of IFN-γ secreting cells in culture of human PBMC” value (PBMC [1]; summary of one-step and two-step detection) was “highest activation of IFN-γ secreting cells” and the “IL-12 concentration at which the number of IFN-γ secreting cells reached a maximum or plateau, IL-12 combined with the poly(I:C) variant” value (“IL-12 concentration at which the number” for short) (PBMC [2]; donor d022) was 0.01 µg/mL. For the same molecule, the “IL-12 concentration at which the number” value (PBMC [2]; donor d098) was 0.001 µg/mL, the “IFN-γ secreting cells after stimulation (in words)” value (PBMC [2]; donor d098, poly(I:C) variants) was “without reaching a plateau” and the “IL-12 concentration at which the number” value (PBMC [2]; donor d248) was 0.01 µg/mL.
In the case of “polyinosinic:polycytidylic acid [poly(I:C)]”, the “number of IFN-γ secreting cells detected” value (PBMC [1]) is reported as “over 270 IFN-γ secreting cells”.
With `CCCCCCCCCCCCCCCCCCCCCCCCCC(=O)N[C@@H](CO[C@H]1O[C@H](CO)[C@H](O)[C@H](O)[C@H]1O)[C@H](O)[C@H](O)CCCCCCCCCCCCCC` [KRN7000 (from Enzo)] the “concentration … plateau or saturation region” value (PBMC [1]; [5]) was 3 µg/mL and the “IFN-γ secreting cells after stimulation (in words)” value (PBMC [2]; donor d022, a-Gal-Cer variants) was “highest number”.
For lipopolysaccharide [LPS], the “effect of combination of LPS with CEFTv (in words)” value (PBMC [1]) was “synergistic induction of IFN-γ secreting NK cells”, the “stimulation ability of CEFTv on simultaneous administration of LPS (in words)” value (PBMC [1]; all three tested donors d204, d237, d254) was “did not result in an improvement” and the “IFN-γ secreting cells after stimulation (in words)” value (PBMC [1]; donor d204 (CMV-/EBV-seropositive), CEFTv / LPS matrix) was “high numbers of IFN-γ secreting cells”. The “LPS concentration at which stimulated PBMC reached a maximum” value (PBMC [1]; donor d219, LPS in combination with CEFTv) was 1 EU/ml, the “IFN-γ secreting cells after stimulation (in words)” value (PBMC [1]; donor d237 (CMV-seronegative/EBV-seropositive), CEFTv / LPS matrix) was “high numbers of IFN-γ secreting cells” and the “LPS concentration as from which IFN-γ secreting cells increased” value (PBMC [1]; donor d237, LPS in combination with CEFTv) was 3.2 EU/ml. The “LPS concentration as from which LPS alone induced a low secretion of IFN-γ” value (PBMC [1]; donor d241) was 10 EU/ml, the “LPS concentration as from which IFN-γ secreting cells increased” value (PBMC [1]; donor d241, LPS in combination with CEFTv) was 3.2 EU/ml and the “LPS concentration as from which LPS alone induced a low secretion of IFN-γ” value (PBMC [1]; donor d254) was 100 EU/ml. The “IFN-γ secreting cells after stimulation (in words)” value (PBMC [1]; donor d254 (CMV-/EBV-seropositive), CEFTv / LPS matrix) was “low numbers of IFN-γ secreting cells”, the “threshold for LPS at which even no IFN-γ secreting cells have been detected” value (PBMC [1]; donors d204, d237, d254) was 1 EU/ml and the “IFN-γ secreting cells after stimulation with the single stimulant (in words)” value (PBMC [1]) was “barely detected”. For the same molecule, the “number of IFN-γ secreting cells detected” value (PBMC [1]) was “high number of IFN-γ secreting cells”, the “own stimulating effect of LPS (in words)” value (PBMC [2]; LPS 1 EU/ml) was “no own detectable stimulating effect” and the “stimulation ability of CEFTv on addition of LPS (in words)” value (PBMC [2]; summary of four donors) was “could not have been improved”.
In the case of `C[C@]12C=CC(=O)C=C1CC[C@@H]1[C@@H]2[C@@H](O)C[C@@]2(C)[C@H]1CC[C@]2(O)C(=O)CO` [prednisolone], the “course of cocktail-reactive IFN-γ producing cells under treatment (in words)” value (PBMC [3]) is reported as “continuous drop in the numbers of cocktail-reactive IFN-g-producing cells”.
`CCCCCCCCCCCCCCCCCCCCCCCCCC(=O)N[C@@H](CO[C@H]1O[C@H](CO)[C@H](O)[C@H](O)[C@H]1O)[C@H](O)[C@H](O)CCCCCCCCCCCCCC` [KRN7000 (from Funakoshi)] was tested, and the “time at which IFN-γ secretion reached a plateau or maximum” value (PBMC [4]; donor d022) was 12 h, the “start of IFN-γ secretion after stimulation” value (PBMC [4]; donor d022) was 8 h and the “time at which IFN-γ secretion reached a plateau or maximum” value (PBMC [4]; donor d248) was 18 h. The “start of IFN-γ secretion after stimulation” value (PBMC [4]; donor d248) was 2 h, the “IFN-γ release in PBMC, comparison of stimulants (in words)” value (PBMC [4]; summary of donors) was “weakest IFN-γ activating properties” and the “concentration … plateau or saturation region” value (PBMC [1]; [5]) was 1 µg/mL. The “more IFN-γ secreting cells activated compared with KRN7000 (from Enzo)” value (PBMC [1]; donor d248, saturation region) was 100% and the “IFN-γ secreting cells after stimulation (in words)” value (PBMC [2]; donor d242, a-Gal-Cer variants) was “highest number of IFN-γ secreting cells”.
With `NC(N)=O` [urea] the “IFN-γ secreting cells after stimulation with the single stimulant (in words)” value (PBMC [1]) was “did not result in a IFN-γ secretion”, the “influence of urea on IFN-γ secreting cells induced by 1 μg p.p./ml CEFTv (in words)” value (from here on “influence … by 1 μg p.p./ml CEFTv (in words)”) (PBMC [2]; donor d034) was “only improved by a 24 hours pre-incubation of CEFTv or directly added urea” and the “influence … by 1 μg p.p./ml CEFTv (in words)” value (PBMC [2]; donor d204, CEFTv pre-incubated for 48 hours in urea buffer) was “deterioration of the stimulation at 100 mM and an improvement at 150 mM”. For the same molecule, the “urea concentration up to which the IFN-γ secreting cells increased” value (PBMC [2]; donor d204, CEFTv pre-incubated in urea buffer for 24 hours) was 12.5 mM and the “influence … by 1 μg p.p./ml CEFTv (in words)” value (PBMC [2]; donor d204, without pre-incubation) was “no improvement”.
